According to patent US20050209278A1, “Piperidinyl- and piperazinyl-sulfonylmethyl hydroxamic acids and their use as protease inhibitors” (priority 2002, published 2005):

Molecular target: T1, MMP-1 (Homo sapiens, UniProt P03956)
T1 construct: made in house; host or cells: MMP-1-transfected HT-1080 cells (spent media)
T1 sequence (P03956 100-469): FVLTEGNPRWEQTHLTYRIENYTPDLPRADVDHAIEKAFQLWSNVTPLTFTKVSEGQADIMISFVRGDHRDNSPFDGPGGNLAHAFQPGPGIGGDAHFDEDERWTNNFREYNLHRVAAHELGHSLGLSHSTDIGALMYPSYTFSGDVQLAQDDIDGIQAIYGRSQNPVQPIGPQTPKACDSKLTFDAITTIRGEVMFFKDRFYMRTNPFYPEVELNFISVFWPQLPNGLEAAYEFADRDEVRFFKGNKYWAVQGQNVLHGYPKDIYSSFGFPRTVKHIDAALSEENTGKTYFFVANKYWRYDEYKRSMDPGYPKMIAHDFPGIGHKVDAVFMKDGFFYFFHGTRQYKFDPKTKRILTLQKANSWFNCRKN
Assay: In vitro MMP inhibition, Ki determination (fluorogenic substrate II)
Assay type: biochemical
Details: value outside parentheses; read-out: MMP-1 Ki

SMILES	Ki
CCCCc1ccc(C2CCN(S(=O)(=O)C3(C(=O)NO)CCN(CCOC)CC3)CC2)nc1 [Example 397]	> 10 µM
CCCC#Cc1cnc(N2CCN(S(=O)(=O)C3(C(=O)NO)CCOCC3)CC2)s1 [Example 400]	3.32 µM
CCCCCC/C=C\C1CCN(S(=O)(=O)C2(C(=O)NO)CCOCC2)CC1 [Example 401]	> 10 µM
CCCCCC/C=C/C1CCN(S(=O)(=O)C2(C(=O)NO)CCOCC2)CC1 [Example 402]	3.65 µM
O=C(NO)C1(S(=O)(=O)N2CCC(COCc3ccc(C(F)(F)F)cc3)CC2)CCOCC1 [Example 403]	> 10 µM
O=C(NO)C1(S(=O)(=O)N2CCC(COCc3ccc(OC(F)(F)F)cc3)CC2)CCOCC1 [Example 404]	> 10 µM
O=C(NO)C1(S(=O)(=O)N2CCC(COCc3ccc(SC(F)(F)F)cc3)CC2)CCOCC1 [Example 405]	8.32 µM
CCCCCCCOC1CCN(S(=O)(=O)C2(C(=O)NO)CCOCC2)CC1 [Example 406]	9.01 µM
CCC(F)(F)CCc1ccc(C2CCN(S(=O)(=O)C3(C(=O)NO)CCOCC3)CC2)cn1 [Example 411]	> 10 µM
Cc1ccc(-c2csc(N3CCN(S(=O)(=O)C4(C(=O)NO)CCOCC4)CC3)n2)cc1 [Example 412]	> 10 µM
Cc1cccc(-c2csc(N3CCN(S(=O)(=O)C4(C(=O)NO)CCOCC4)CC3)n2)c1 [Example 413]	> 10 µM
O=C(NO)C1(S(=O)(=O)N2CCN(c3nc(-c4ccccc4)cs3)CC2)CCOCC1 [Example 415]	> 10 µM
O=C(NO)C1(S(=O)(=O)N2CCN(c3ccc(-c4nn[nH]n4)cc3)CC2)CCOCC1 [Example 419]	> 10 µM
CCCCc1ccc(C2(O)CCN(S(=O)(=O)C3(C(=O)NO)CCOCC3)CC2)nc1 [Example 420]	> 10 µM

Continued, values first:

Ki	SMILES
1.95 µM	O=C(NO)C1(S(=O)(=O)N2CCC(c3ccc(OCc4ccccc4)cn3)CC2)CCOCC1 [Example 398]
> 10 µM	O=C(NO)C1(S(=O)(=O)N2CCC(c3ccc(-c4cccs4)c(F)c3)CC2)CCOCC1 [Example 407]
> 10 µM	O=C(NO)C1(S(=O)(=O)N2CCC(c3ccc(N4CCCC4)cn3)CC2)CCOCC1 [Example 408]
> 10 µM	O=C(NO)C1(S(=O)(=O)N2CCC(c3ccc(-c4ccccn4)cn3)CC2)CCOCC1 [Example 409]
3.49 µM	CCCCOc1ccc(C2CCN(S(=O)(=O)C3(C(=O)NO)CCOCC3)CC2)nc1 [Example 410]
6.42 µM	Cc1ccc(-c2ccc(C3CCN(S(=O)(=O)C4(C(=O)NO)CCOCC4)CC3)nc2)s1 [Example 416]
1.83 µM	O=C(NO)C1(S(=O)(=O)N2CCC(c3ccc(-c4cccc(F)c4)cn3)CC2)CCOCC1 [Example 417]
3.08 µM	O=C(NO)C1(S(=O)(=O)N2CCC(c3ccc(OCCC(F)(F)F)cn3)CC2)CCOCC1 [Example 418]
